In patent US8198260B2, “Composition for the prevention and/or treatment of disorders due to abnormal lipid metabolism, comprising propionyl L-carnitine and chitosan” (Sigma-Tau Industrie Farmaceutiche Riunite SpA, priority 1999, dated 2012):

Tests used:
[1] = system: male Wistar rats on atherogenic diet; experiment: Experimental atherosclerosis tests (atherogenic diet for six weeks); format: in vivo; settings: 100 mg/kg of each component
Method: D2 200 mUST/g diet was administered for six weeks consecutively to different groups of male Wistar rats.
While one group of rats served as a control group, the other groups were administered chitosan (100 mg/kg) or propionyl L-carnitine (100 mg/kg) or chitosan (100 mg/kg) plus propionyl L-carnitine (100 mg/kg).
Another group of animals was administered acetyl L-carnitine (100 mg/kg) and butyryl L-carnitine (100 mg/kg) in addition to chitosan and propionyl L-carnitine.

[2] = system: experimentally obese rats; experiment: Tests in experimentally obese rats (lipogenic diet for fifteen days); format: in vivo, Wistar rats
Method: In these tests, male Wistar rats aged approximately two months were administered a lipogenic diet containing 50% glucose, 20% casein, 4% cellulose, 1% hazel nut oil, 18% starch, 2% vitamin mixture, and 5% salt mixture. The diet was administered for fifteen days consecutively to different groups of rats, one of which served as a control group, whereas the remaining groups were administered daily, per 100 g of diet, 2 g of propionyl L-carnitine or 1 g of chitosan, or the two compounds in combination at the same doses.
Another group was also administered acetyl L-carnitine (2 g/100 g diet) and butyryl L-carnitine (0.5 g/100 g diet) in addition to propionyl L-carnitine and chitosan.
At the end of the fifteenth day since the beginning of the diet, feed consumption and increase in body weight were calculated for each group of rats.

[3] = system: experimentally hypercholesterolaemic rabbits; experiment: Tests in experimentally hypercholesterolaemic rabbits (plasma lipoproteins); format: in vivo, New Zealand rabbits
Method: Another type of experiment was conducted in New Zealand rabbits kept on a hypercholesterolaemic diet for forty days and treated with alkanoyl L-carnitine, chitosan or with the two types of compounds in combination. In these tests, 0.5% by weight of cholesterol was added to the normal diet of the rabbits consisting of 150 g/day and containing 2% fats, 20% fibres and 11% ashes.
While one group of animals was used as a control group, the remaining groups were treated for six days with propionyl L-carnitine (2 g/100 g diet), chitosan (1 g/100 g diet), or propionyl L-carnitine+acetyl L-carnitine+butyryl L-carnitine (1 g+1 g+1 g/100 g diet) or with chitosan plus propionyl L-carnitine or chitosan plus the alkanoyl carnitine complex at the doses indicated above.
At the end of the fortieth day of treatment blood samples were taken from the ear vein from all animals and the plasma was used to calculate lipoprotein content in the various fractions (VLDL, LDL, HDL) after ultracentrifuging according to the method described by Noble (Noble R. P., J. Lipid Res., 9:693, 1968).

[4] = Day 40 of 0.5% cholesterol diet

CCC(=O)O[C@H](CC(=O)[O-])C[N+](C)(C)C [Propionyl L-carnitine, propionyl L-carnitine]
Protective effect against atherosclerotic lesions induced by the atherogenic diet [1]: substantial protective effect | Mean daily feed consumption (g)/animal, before treatment ([2]; before treatment, lipogenic diet, per 100 g diet: propionyl L-carnitine 2 g, chitosan 1 g, acetyl L-carnitine 2 g, butyryl L-carnitine 0.5 g): 19.8 ± 0.71 g | Mean body growth, final weight increase ([2]; end of fifteenth day of lipogenic diet, same doses in diet): 60.8 ± 5.2 | Mean daily feed consumption (g)/animal, at the end of treatment ([2]; end of fifteenth day, lipogenic diet, per 100 g diet: propionyl L-carnitine 2 g, chitosan 1 g, acetyl L-carnitine 2 g, butyryl L-carnitine 0.5 g): 18.9 ± 0.50 g | Plasma lipoprotein concentration HDL ([3]; Day 0): 24.2 ± 2.4 mg/dL | Plasma lipoprotein concentration LDL ([3]; Day 0): 9.8 ± 1.9 mg/dL | Plasma lipoprotein concentration VLDL ([3]; Day 0): 1.4 ± 0.9 mg/dL | Plasma lipoprotein concentration HDL [3, 4]: 26.5 ± 10.4 mg/dL | Plasma lipoprotein concentration LDL [3, 4]: 322 ± 31.4 mg/dL | Plasma lipoprotein concentration VLDL [3, 4]: 832 ± 105 mg/dL | Increase in VLDL compared with control animals (in words) ([3]; fortieth day, hypercholesterolaemic diet): much less significant
